Earlier results as cited in US20220257541A1, “Lacosamide for the Treatment of ADD/ADHD” (priority 2019, published 2022).

Columns and labels:
[1] = test system: children who take methylphenidate; conditions: cited from earlier work
[2] = test system: voltage-gated sodium channels; conditions: cited from earlier work

Compound	proportion of children who develop symptoms of obsessive-compulsive behaviour [1]	mechanism of action [2]
COC(=O)C(c1ccccc1)C1CCCCN1 (centres unmarked) [methylphenidate]	one third	–
NC(=O)c1cn(Cc2c(F)cccc2F)nn1 [rufinamide, 1-[(2,6-difluorophenyl)methyl]-1H-1,2,3-triazole-4 carboxamide]	–	act through voltage-gated sodium channels
